The text below walks through data of a melting point compilation (Tetko et al.; mined from patent text by program, amines drawn as free bases though some values may be those of a salt).

On to `COc1cc2c(cc1[N+](=O)[O-])C(C)CC1c3ccccc3CC1(C)C2` (centres undefined), for which the melting point was 90 to 94 °C.

On to `O=C(CC(O)c1ccccc1)NCc1ccccc1[N+](=O)[O-]` (centres undefined), for which the melting point turned out to be 145 °C.

Compound `Oc1ccc2cc(-c3csc(-c4ccccc4)n3)ccc2c1` registered a melting point of 194 to 197 °C.

Compound `CCOC(=O)N1CCC(c2nc(-c3ccc(-c4ccccc4)cc3)c[nH]2)CC1` displayed a melting point of 71 to 72 °C.

`COC1=CC2=CCC3C(C(F)CC4(C)C(=O)CCC34)C2CC1` (centres undefined) yielded a melting point of 173 °C.

Regarding `COC(=O)c1ncn2c1[C@@H]1CCCN1C(=O)c1ccccc1-2`, the melting point was in the range of 165 to 167 °C.

Compound `CC(C)(C)ON1C(C)(C)CC(OC(=O)c2ccccc2)CC1(C)C` returned a melting point of 80 to 82.5 °C.

As to `CCc1nc([C@@H]2C[C@H]2c2nc3ccccc3n2C)cc(-n2nc(C)nc2C)n1` (relative stereo), the melting point was 158 to 160 °C.

Regarding `CN(C)CCC(c1ccc(NC=O)cc1)c1ncc[nH]1` (centres undefined), the melting point was in the range of 142 to 144 °C.

`N#Cc1ccc(NC(=S)Nc2ncccc2OCc2ccccc2)cc1` gave a melting point of 163 to 165 °C.

Take `CC(C)(C(=O)O)c1ccc(CCl)cc1`: the melting point was 121 to 122 °C.

In the case of `Cc1c(C(=O)Nc2ccc(N3CCN(C4CCOCC4)CC3)c(C#N)c2)cnn1-c1ccc(C(F)(F)F)cc1`, the melting point is 274 °C.

Regarding `CCOC(=O)c1oc(-c2ccc(Cl)cc2)nc1C`, the melting point is 80 to 81 °C.

Take `CC(C)c1cc([N+](=O)[O-])cc(C(C)C)c1OS(N)(=O)=O`: the melting point lay within 163 to 167 °C.

In turn, `CCCc1nc2cc([N+](=O)[O-])ccc2n1Cc1ccc(C(=O)OCC)cc1` displayed a melting point of 136 to 138 °C.

`C=CCOC(=O)CCc1cc(C(C)(C)C)c(O)c(C(C)(C)C)c1` gave a melting point of 40 °C.

As to `COC(=O)c1c(O)cccc1OCCCCNC(=O)CCc1ccc(N2CC(=O)NS2(=O)=O)c(O)c1`, the melting point is 85 to 90 °C.

Take `COc1ccc(-c2c(Cl)c(CN3C(=O)CCC3=O)nc3sc4c(c23)CC(C)(C)C(=O)C4(C)C)cc1`: the melting point lay within 214 to 216 °C.

In turn, `O=S(=O)(CCO)Cc1ccc(CS(=O)(=O)CCO)cc1` showed a melting point of 210 to 212 °C.

The compound `Cc1cccc(SCn2cc(F)cnc2=O)c1` gave a melting point of 124 °C.

Regarding `COc1ccc(C(OC2CCN(CC(=O)O)CC2)c2ccccc2)cc1` (centres undefined), the melting point was in the range of 84 to 85 °C.

The compound `CCOC(=O)Cc1ccc(OCc2nc(-c3ccccc3)oc2C)c(OC)c1` had a melting point of 86 to 87 °C.

With `Cc1sc(Nc2cccc(I)n2)nc1-c1cn[nH]c1`, the melting point is > 260 °C.

`CCOC(=O)C(C)(C(=O)OCC)c1ccc(N)c(C(C(=O)OC)C(=O)OC)c1`: the melting point was 91 to 92 °C.

With `N#Cc1ccc(/C=C/c2nc[nH]c2[N+](=O)[O-])cc1`, the melting point is > 300 °C.

The compound `CCc1c(-c2ccc(O)cc2)c2cc(COCCN(C)C)c3cccc1n32` displayed a melting point of 141 to 143 °C.

Take `Clc1ccc2nc3c(nc2c1)N1CCCCC1CO3` (centres undefined): the melting point was in the range of 147 to 149 °C.

With `CCCC(=O)Nc1cc(C(=O)NC2CCN(C(C)CC(C(=O)N(C)C)(c3ccccc3)c3ccccc3)CC2OC)c(OC)cc1Cl` (centres undefined), the melting point is 131 °C.

Consider `CC(=O)N1CCc2c(sc3nc4ccccc4n23)C1`, for which the melting point was 181 to 186 °C.

Consider `C#CCN(C(=O)c1cnccc1C(F)(F)F)S(=O)(=O)c1cccc(C)c1`, for which the melting point was 111 to 114 °C.

`CCCc1nc(C)c2c(=O)[nH]c(C)nn12`: the melting point was in the range of 228 to 231 °C.

Compound `Cc1oc(-c2ccccc2)nc1CCOc1cccc2c1ccn2C(C)C(=O)O` (centres undefined) showed a melting point of 157 to 159 °C.

For `Nc1nc(-c2cc(Cl)ccc2Cl)nc(N2CCC(CO)CC2)n1`, the melting point fell in the range of 173 to 175 °C.

On to `Cc1cc(C(C)(C)C)c(O)c([N+](=O)[O-])c1[N+](=O)[O-]`, for which the melting point was in the range of 104 to 105 °C.

The compound `Cc1cc(NC(=O)C(C)(O)COc2ccc(CCF)cc2)ccc1[N+](=O)[O-]` (centres undefined) gave a melting point of 102 to 105 °C.

With `CCOC(=O)c1c([N+](=O)[O-])c(C)nn1C`, the melting point lay within 47 to 48 °C.

`CS(=O)(=O)c1ccc(-c2cnn(-c3ccc([N+](=O)[O-])cc3)c(=O)c2-c2ccc(F)cc2)cc1` showed a melting point of 110 to 116 °C.

In the case of `CN(C)c1cccc(CNc2nc(Nc3cccc(NS(C)(=O)=O)c3)nc3[nH]cnc23)c1`, the melting point was in the range of 148 to 151 °C.

The compound `Nc1ccc2c(c1)CC(NS(=O)(=O)c1ccc(Cl)cc1)C2` (centres undefined) gave a melting point of 145 to 147 °C.

The compound `CC(C)(C)NC(=O)C(C)(C)C` registered a melting point of 116 to 118 °C.

`Cc1onc(-c2ccc(Br)o2)c1-c1ccccc1`: the melting point lay in the range of 93 to 96 °C.

In turn, `CS(=O)(=O)c1ccc(-n2nc(C(F)(F)F)cc2-c2ccc(C#Cc3ccccc3)cc2)cc1` showed a melting point of 170 to 172 °C.

With `COC(=O)CCn1c(C(=O)NCC(=O)N(CC2CCCCC2)c2c(OC)cc(C)cc2OC)cc2ccccc21`, the melting point came to 68 °C.

With `CCOC(=O)c1c(C)nc(-c2ccccc2)nc1-c1ccc(F)cc1`, the melting point fell in the range of 82 to 94 °C.

On to `CNc1nccn2c(Br)cnc12`, for which the melting point turned out to be 139 °C.

With `O=C1NC(=O)C2(c3ccc4ccc(O)nc4n3)C=CC=CC12` (centres undefined), the melting point was determined as 370 °C.

Turning to `COc1ccc(COc2c(OC)cc(C=C(C(=O)OC(C)C)P(=O)(OC)OC)cc2OC)cc1`, the melting point lay in the range of 68 to 69 °C.

`CC(C)c1nc(-c2c(F)c(F)cc(F)c2F)cc(-c2ccc(F)cc2)c1C=C(Br)Br` returned a melting point of 77 °C.

For the compound `CC(C)(C)c1cc(CN=[N+]=[N-])nn1-c1ccc(S(C)(=O)=O)cc1`, the melting point was in the range of 115 to 117 °C.

For `COc1ccc2c(c1)COc1c-2cc(-c2cccs2)c2cc(OC)ccc12`, the melting point was in the range of 110 to 112 °C.

On to `O=C(NCCCc1cccs1)n1cc(F)c(=O)[nH]c1=O`, for which the melting point fell in the range of 131 to 133 °C.

With `COc1cc(OC)nc(Oc2cccc(Oc3nc(OC)cc(OC)n3)c2C)n1`, the melting point came out at 140 °C.

The compound `CN(NC(=O)c1c(F)cccc1Cl)S(C)(=O)=O` showed a melting point of 135 to 136 °C.

In turn, `CCn1cc(C(=O)O)c(=O)c2cc(F)c(N3CC(C)C(CN)C3)c(F)c21` (centres undefined) yielded a melting point of 222 to 224 °C.

`CCc1cn(C2CC(O)C(CNC(=O)c3ccccc3)O2)c(=O)[nH]c1=O` (centres undefined) gave a melting point of 246 to 247 °C.

As to `COc1cc(C(=O)c2c(C)c(C(=O)O)c3ccccn23)ccc1[N+](=O)[O-]`, the melting point came to 215 °C.

On to `c1ccc(CN2CCN(Cc3n[nH]c4ccccc34)CC2)cc1`, for which the melting point fell in the range of 130 to 131 °C.

As to `CCCCC(Oc1c(Br)cc(-c2c3ccccc3c(Br)c3sc4ccccc4c23)cc1Br)C(=O)O` (centres undefined), the melting point was 212 to 213 °C.

Compound `COc1cc([N+](=O)[O-])cnc1Cl` had a melting point of 40 to 41 °C.

The compound `COc1ccc(CC2SC(=O)NC2=O)cc1CC(=O)Nc1ccc(Oc2ccccc2)cc1` (centres undefined) came in with a melting point of 82 to 84 °C.

Consider `Cc1c(C)c2c(c(C)c1Br)CC(C)(CBr)O2` (centres undefined), for which the melting point fell in the range of 60 to 61 °C.

As to `CCCNC(=O)c1ccsc1N=C(OCCC)OCCC`, the melting point lay within 57 to 58 °C.

In the case of `CCCCn1nc2c(N)nc3ccccc3c2c1CC`, the melting point was in the range of 215 to 216 °C.

In turn, `CC1C=CCCC1C(O)C(N)=O` (centres undefined) showed a melting point of 149 to 151 °C.

Compound `CNC(=O)c1oc(C(C)(C)C)cc1NC(=O)Nc1ccc(F)cc1` registered a melting point of 109 to 111 °C.

As for `CS(=O)(=O)Nc1ccc(C(=O)Nc2cn3cc(Cl)ccc3n2)cc1`, the melting point fell in the range of 293 to 295 °C.

In turn, `COc1ccc(C(=O)C(=O)c2ccc(OC(F)F)cc2)cc1C#N` showed a melting point of 150 to 155 °C.

`CC1(C)Oc2c(Cl)cc(Cl)cc2[C@@H](Br)[C@@H]1O` (relative stereo) registered a melting point of 46 °C.

Compound `O=C(O)c1oc2cc(O)ccc2c(=O)c1C(=O)O` displayed a melting point of 255 to 257 °C.

In turn, `CC(CNc1cccc(-c2ccnc3c(C(=O)c4cccs4)cnn23)c1)c1ccccc1` (centres undefined) displayed a melting point of 108 to 110 °C.

With `CC(=O)OC1C(CO)OC(n2c(=O)sc3cnc(N)nc32)C1OC(C)=O` (centres undefined), the melting point lay in the range of 109 to 111 °C.

In turn, `CCOC(=O)Nc1nc(C(=O)C(=O)OC)ns1` displayed a melting point of 170 to 174 °C.

`COc1ccccc1Oc1cccc(CC(=O)O)c1OC` registered a melting point of 121 to 122 °C.

For the compound `Cc1nnc2c(Cl)nc([N+](=O)[O-])c(N)n12`, the melting point was 220 °C.

For the compound `Cc1ccc(C)c(OCCCC(C)(C)C(=O)Nc2cccc(C(=O)O)c2)c1`, the melting point worked out at 161 °C.

`CCCCCN1C(=O)C2(COc3cc(F)c(Cl)cc32)c2ccccc21` (centres undefined) gave a melting point of 74 to 76 °C.

The compound `c1ccc(N2c3ccccc3[C@@H]3CNCC[C@H]32)cc1` registered a melting point of 74 to 76 °C.

In turn, `CS(=O)(=O)c1ccc(-c2ccccc2NC(=N)N2CCCCC2)cc1` displayed a melting point of 128 to 129 °C.

For the compound `N#Cc1c(Cl)n(C2OC(CF)C(O)C2O)c2cc(Cl)c(Cl)cc12` (centres undefined), the melting point fell in the range of 246 to 247 °C.

The compound `Cn1c(=O)c2c(N)nccc2n(C)c1=O` yielded a melting point of 229 to 230 °C.

As for `CC(C)(C)OC(=O)NC(Cc1ccccc1)C(O)CNCC(O)C(Cc1ccccc1)NC(=O)OC1c2ccccc2CC1O` (centres undefined), the melting point lay within 131 to 133 °C.

On to `COC1=CC(N)C(C)(Cl)C=C1` (centres undefined), for which the melting point lay within 83 to 85 °C.

Consider `COc1ccc2c(c1)CCC1C2CCC2(C)C1CCC2N(C=O)CCCO` (centres undefined), for which the melting point lay within 159 to 161 °C.

The compound `Cc1ccc(N2CCN(Cc3ccc4ccc(=O)oc4c3)CC2)cc1` showed a melting point of 154 to 155 °C.

Compound `CC(C)n1nc(-c2sc(NC(=O)CNCCO)nc2-c2ccccc2)ccc1=O` displayed a melting point of 142 to 144 °C.

For `CSc1ccc(C(C)Nc2nc(NC(C)=O)nc(C(F)(F)F)n2)cc1` (centres undefined), the melting point is 132 °C.

Regarding `CCCCc1nc2c(N)nc3ccccc3c2n1CCCCS(C)=O` (centres undefined), the melting point is 126 to 128 °C.

The compound `CCCCCCNC(=O)Nc1cccc2c1C1(COc3cc4c(cc31)OCCO4)C(=O)N2C` (centres undefined) returned a melting point of 154 to 155 °C.

As for `O=CN1CCC(C(c2ccccc2)c2ccccc2)CC1`, the melting point lay in the range of 172 to 174 °C.

In general, melting point refers to the temperature, or range, at which the solid turns liquid.
